Source: the METLIN SMRT retention time set (Domingo-Almenara et al. 2019)

Test: gradient 5% acetonitrile 3 min, to 50% in 2 min, to 85% in 15 min, held 3 min, 100 µL/min
Details: column: Zorbax Extend-C18 2.1 x 50 mm; eluents: water / acetonitrile, 0.1% formic acid
Summary of the method: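 The mobile phases were water and acetonitrile, each with 0.1% formic acid, pumped at 100 μL/min through a Zorbax Extend-C18 column (2.1 × 50 mm, 1.8 μm). Pure standards were injected as mixtures of ~100 molecules and detected by a quadrupole time-of-flight mass spectrometer in positive and negative ionization mode. Retention time came from computationally picked adduct peaks, each inspected by hand.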

SMILES	RP-LC retention time
Cc1cc2c(=O)n(CC(=O)Nc3ccc(C)c(Cl)c3)ccc2s1	896 s
COc1cc(OC)cc(-c2noc(Cn3ccn4nc(-c5ccc(Cl)cc5)cc4c3=O)n2)c1	1130 s
CCOC(=O)Cn1c2ccccc2n2nc(C)c(=O)nc12	699 s
Cc1ccc(C)c(Cn2nnc(C(=O)O)c2-c2ccccn2)c1	752 s
CCOc1cccc(-c2noc(Cn3c(=O)n(CCCOC)c(=O)c4ccccc43)n2)c1	1040 s
O=C1CC(c2noc(CCCc3ccccc3)n2)CN1c1ccc(F)c(Cl)c1 (configuration not stated)	1150 s
CCS(=O)(=O)N1CCCC(Cn2cc(COc3ccc4c(c3)CCC4)nn2)C1 (configuration not stated)	963 s
COCCC1(NS(C)(=O)=O)CCN(C(=O)C2(c3ccc(OC)cc3)CC2)CC1	710 s
Cc1nc(-c2cc(S(=O)(=O)NCCN3CCC(C)CC3)c(C)s2)sc1C	718 s
COc1ccc(CCN2CN=C(Nc3nc(C)c4cc(C)ccc4n3)NC2)cc1OC	722 s
CC(C(=O)NCCCN1CCCCC1)n1ccc2cc(S(=O)(=O)N3CCCCCC3)ccc21 (configuration not stated)	707 s
COc1ccc(C(=O)N2CCC3(CC2)NC(=O)c2cc(C)ccc2N3C)cc1OC	711 s
O=C(CSc1nc2ccccc2s1)Nc1cccn2cc(-c3ccccc3)nc12	1110 s
CC(=O)N1CCc2sc(S(=O)(=O)N3CCN(c4cc(C)ccc4C)CC3)cc2C1	1010 s
COc1ccc(C2(c3nc(-c4ccc(CNC(=O)C5CC5)s4)no3)CC2)cc1	955 s
O=C(CCc1ccccc1)Nc1cnn(-c2ncncc2N2CCCC2)c1	702 s
Cc1cccc(NC(=O)Cn2nc(N3CCCC3)c3ccccc3c2=O)c1	960 s
CCS(=O)(=O)c1ccc2c(c1)N(Cc1nc(-c3ccc(C)cc3)no1)C(=O)CO2	945 s
CCOc1ccc(CNC(=O)C2CCCN(c3cc(=O)n(C)c(=O)n3CC)C2)cc1OCC (configuration not stated)	791 s
CN(C)C(=O)c1csc(S(=O)(=O)N2CCC(C(=O)NC3CCCCC3)CC2)c1	720 s
Cc1ccc(C#CC(C)(O)C(C)(C)C)cn1 (configuration not stated)	722 s
CCn1cc(C(=O)Nc2cccc(C(C)=O)c2)c2nn(-c3ccccc3)c(=O)c-2c1	808 s
Cc1ccccc1-c1nc(C2CCN(S(=O)(=O)c3ccccc3)CC2)no1	1140 s

SMILES	RP-LC retention time
CC1(O)CCOC2(CCN(Cc3cccc4[nH]ccc34)CC2)C1 (configuration not stated)	589 s
O=C(Cn1cc2c(n1)CCCC2)N1CCC(Cc2ccccc2)CC1	965 s
COc1ccccc1N1CCN(C(=O)c2cc(C3CC3)[nH]n2)CC1	699 s
Cc1ccc(NC(=O)NCC2CCOCC2)cc1Cl	773 s
Cc1ccccc1OCC(=O)Nc1ccc2c(c1)N(S(=O)(=O)c1ccccc1)CCC2	1030 s
O=C(Cn1c(=O)c(=O)n(Cc2ccccc2)c2ncccc21)NCc1ccccn1	643 s
CCCNC(=O)c1cnn(-c2cc(-c3nc(CC)no3)ccn2)c1C	849 s
CC(=O)c1cccc(NC(=O)c2nc3nc(C)cc(C(F)F)n3n2)c1	734 s
CSc1nnc(CCc2c(C)[nH]c(=O)[nH]c2=O)o1	549 s
COc1ccc(NC(=O)c2sc(-c3cn(C)c4ncccc34)nc2C)c(C)c1	881 s
COCCCNC(=O)C1CCN(c2cnn(Cc3ccccc3)c(=O)c2)CC1	651 s
COc1ccc(NC(=O)Cn2c(Nc3cc(C)cc(C)c3)nc(C)cc2=O)cc1Cl	849 s
Cc1cc2nc(C(=O)N3CCN(c4ccccn4)CC3)c(=O)n(C)c2cc1C	597 s
O=S(=O)(Cc1cccc(F)c1)N1CCC(C2CCNC2)CC1 (configuration not stated)	632 s
CCc1nc2ccccc2c(=O)n1Cc1noc(/C=C/c2ccc(OC)cc2)n1	1000 s
CCN1C(=O)CCc2cc(NC(=O)c3ccc(C)s3)ccc21	800 s
Cc1ccc(NC(=O)N2CCN(c3ccc(=O)n(-c4ccccc4)n3)CC2)cc1	674 s
COC(=O)c1ccccc1NC(=O)N(Cc1cc(=O)[nH]c2ccccc12)C(C)C	831 s
Cc1cc(C)n(CC(=O)N2CCN(c3ccccc3O)CC2)n1	604 s
CCCc1noc(-c2ccc3nnc(CC(=O)Nc4cc(C)cc(C)c4)n3c2)n1	947 s
CN1C(=O)C(CC(=O)NCc2ccccn2)Sc2ncccc21 (configuration not stated)	762 s
CCc1ccc(CNC(=O)c2ccc3c(c2)N(C)C(=O)C2CCCCN32)cc1 (configuration not stated)	663 s
Cc1[nH]c(C)c(S(=O)(=O)N2CCN(c3ccccn3)CC2)c1C(=O)N1CCCC1	586 s

SMILES	RP-LC retention time
Cc1ccc(NC(=O)C2CCCN(S(=O)(=O)c3c[nH]c(C(=O)N4CCCCCC4)c3)C2)cc1 (configuration not stated)	926 s
Cc1ccc(N2C(=O)CN(S(=O)(=O)c3ccccc3)CC2(C)C(=O)NC2CCCCC2)cc1 (configuration not stated)	1000 s
CCC(=O)N1CCc2cc(N3CC(C(=O)Nc4cccc(C(C)=O)c4)CC3=O)ccc21 (configuration not stated)	696 s
Cc1cccc(Nc2c(-c3ccc4c(c3)OCO4)nc3cnccn23)c1C	928 s
Cc1cc(C)nc(Nc2nc(C(=O)N3CCN(C(=O)c4ccco4)CC3)cs2)n1	665 s
CCc1ccc2nc(C)cc(C(=O)NC(C)C)c2c1	621 s
Cc1c(Cl)cccc1NC(=O)N1CCCC1c1nncn1-c1ccccc1 (configuration not stated)	738 s
CCC(C)NC(=O)c1ccn[nH]1 (configuration not stated)	593 s
Cc1cccc(NC(=O)C2CCCN2S(=O)(=O)c2cc3c(cc2C)NC(=O)C(C)O3)c1 (configuration not stated)	813 s
O=C(Nc1ccc2c(c1)OCCO2)C1CC(=O)N(CCc2c[nH]c3ccc(F)cc23)C1 (configuration not stated)	764 s
Cc1ccc(NC(=O)N2CCC(N3CCN(Cc4ccccn4)C(=O)C3=O)CC2)c(Cl)c1	876 s
O=C(Nc1ccccc1Cl)C1CN(S(=O)(=O)C2CC2)CC12CCCCC2 (configuration not stated)	1020 s
CCCCN1CCN(Cc2nc(-c3ccc(N4CCC(C)CC4)nc3)no2)CC1	644 s
Cc1ccc(CNC(=O)C2(C)CN(S(C)(=O)=O)CC(=O)N2CCc2ccccc2)cc1 (configuration not stated)	856 s
CCCc1nc2ccc(CCC(=O)Nc3cc(OC)cc(OC)c3)cc2[nH]1	657 s
Cc1oc(-c2[nH]ncc2C(=O)N2CCCC2)cc1S(=O)(=O)Nc1cccc(F)c1	704 s
CCOC(=O)N1CCN(c2c(N3CCN(c4ccccn4)CC3)c(=O)c2=O)CC1	562 s
O=C(c1cnn2cc(Br)cnc12)N1CCCC1c1cccc(F)c1 (configuration not stated)	904 s
Cc1ccc(OCC(=O)Nc2cc3c(cc2N2CCCC2)n(C)c(=O)c(=O)n3C)c(C)c1	1000 s
O=C(Cc1nnc(-c2cccc(F)c2)o1)N1CCC2(CC1)OCCO2	698 s
CCc1nc2cc(-c3noc(-c4nccc5ccccc45)n3)ccc2o1	1130 s
